Source: patent US11160837B2, “Megamonas funiformis and applications thereof” (BGI SHENZHEN, priority 2017, dated 2021)

Test system: AF24-28AC
Assay: Antibiotic sensitivity of AF24-28AC by the drug sensitive paper method
Assay type: cell-based, Megamonas funiformis
Details: for Resistance / sensitivity of AF24-28AC to the antibiotic: drug sensitive paper method, result in words
Protocol: The sensitivity of AF24-28AC to 20 common antibiotics was tested by the drug sensitive paper method. 100 μl of AF24-28AC bacterial solution cultured to the logarithmic phase was spread plated. Antibiotic susceptibility papers (purchased from Hangzhou Microbial Reagent Co. LTD.) were affixed on the medium surface of plates, cultured at 37° C. for 48 hours, after which the size of inhibition zone was measured.

CN(C)[C@@H]1C(=O)C(C(N)=O)=C(O)[C@@]2(O)C(=O)C3=C(O)c4c(O)cccc4[C@@](C)(O)[C@H]3C[C@@H]12 [Acheomycin] was tested, and the “Diameter of inhibition zone” value (antibiotic susceptibility papers on plates spread with AF24-28AC, 37° C., 48 hours) was 4.2 cm.
With CCN1CCN(C(=O)N[C@@H](C(=O)N[C@@H]2C(=O)N3C(C(=O)O)=C(CSc4nnnn4C)CS[C@H]23)c2ccc(O)cc2)C(=O)C1=O [Cefoperazone] the “Resistance / sensitivity of AF24-28AC to the antibiotic” value (“Resistance / sensitivity of AF24-28AC” below) was “resistant”.
For Cc1onc(-c2ccccc2)c1C(=O)N[C@@H]1C(=O)N2[C@@H]1SC(C)(C)[C@@H]2C(=O)O [Oxacillin], the “Resistance / sensitivity of AF24-28AC” value was “resistant”.
For Penicillin, the “Resistance / sensitivity of AF24-28AC” value was “resistant”.
